According to US11879145B2, “Reagents and methods for replication, transcription, and translation in semi-synthetic organisms” (The Scripps Research Institute, priority 2019, dated 2024):

System: sfGFP^151(AXC)
Experiment: In vivo translation screen of XTPs/YTPs: protein shift (AzK incorporation) by DBCO-TAMRA western blot
Type: cell-based, E. coli
Conditions: TPT3TP 30 μM, dCNMO-dTPT3 UBP, strain ML2
Procedure: In vivo Translation Screen of XTPs/YTPs. An overnight culture of the SSO strain ML2 carrying the pGEX-MbPylRS TetR plasmid was grown in 2×YT supplemented with 50 mM potassium phosphate, […] chloramphenicol and 100 μg/mL carbenicillin (herein referred to in this section as “media”), then diluted back to an OD600 of 0.03 in the same media and grown to an OD600 of 0.4 to 0.6. The culture was then chilled with shaking over ice-water for 15 minutes then pelleted by centrifugation at 3,200×g for 10 min. Cells were then resuspended and washed with ice-cold ddH2O twice then resuspended in ice-cold ddH2O to OD600 of 55-65. The electrocompetent cells (50 μL) and 1 ng of Golden Gate assembled plasmid with the UBP within the sfGFP and tRNAPyl genes (see Golden Gate Assembly of Plasmids) were transferred to a pre-chilled electroporation cuvette (0.2-cm-gap), then electroporated (Gene Pulser II; Bio-Rad) according to manufacturer's recommendations (voltage […], capacitor 2.5 μF, resistor 200Ω), and then immediately diluted with 950 μL of media. An aliquot (40 μL) of the transformation was then diluted five-fold in media supplemented with dCNMOTP (25 μM) and dTPT3TP (10 μM) for a final volume of 200 μL then allowed to recover for 1 h shaking at 37° C. Two-fold dilutions of the recovery were plated onto solid media supplemented with zeocin (50 μg/mL), dCNMOTP (10 μM), dTPT3TP (10 μM), and agar (2% w/v), then grown at 37° C. for 18 h. Single colonies were picked and grown in media (300 μL) supplemented with 50 μg/mL zeocin and provided dCNMOTP (25 μM) and dTPT3TP (10 μM) (herein afterward referred to in this section as “growth media”). The culture was monitored for cell growth (Envision 2103 Multilabel Plate Reader with a 590/20 nm filter) and then collected at an OD600˜1.0. An aliquot (50 μL) was subjected to plasmid isolation using the ZR Plasmid Prep Kit (Zymo Research). Isolated plasmids were then subjected to the streptavidin gel shift assay described below (using primers P3-4 and P5-6, Table S1) to determine UBP retention.
A colony with excellent UBP retention was then diluted to an OD600˜0.01 in growth media and grown to OD600˜0.4-0.6. This culture was then divided into multiple 300 μL cultures and for the screen of XTP analogs, each was provided with the corresponding XTP (at either 25 μM or 250 μM) or ddH2O for “−XTP” samples, TPT3TP (30 μM), and AzK (10 mM). For the screen of YTP analogs, each 300 μL culture was provided with the corresponding YTP (at either 25 μM or 250 μM) or ddH2O for “−YTP” samples, NaMTP (250 μM), and AzK (10 mM). Samples were shielded from light after addition of AzK to prevent photodegradation. These samples were then grown at 37° C. for 20 min before adding 1 mM IPTG and grown at 37° C. for an additional 1 h to induce T7 RNAP and transcription of tRNAPyl and PylRS. From this point on, cells were monitored for growth and fluorescence. Expression of sfGFP was then induced with anhydrotetracycline (100 ng/mL). After an additional 3 h of growth at 37° C., cells were collected (230 μL for affinity purification of sfGFP), cooled, and then pelleted and stored at −80° C. before protein purification.
Affinity Purification of sfGFP. Cell pellets collected from translation experiments were resuspended in BugBuster (100 μL 1×, EMD Millipore) and shaken at room temperature for 15 min. […]

COc1cc(C)c(F)cc1[C@@H]1O[C@H](COP(=O)(O)OP(=O)(O)OP(=O)(O)O)[C@@H](O)[C@H]1O [Compound 5FMTP]
sfGFP protein gel shift (ncAA incorporation) (XTP 25 μM): 94% | sfGFP protein gel shift (ncAA incorporation) (XTP 250 μM): 98%
